According to patent US5157052A, “Method for inhibiting IgE production” (priority 1990, dated 1992):

Tests used:
[1] = system: leukocyte membrane proteins; assay: Cell surface density or distribution of leukocyte membrane proteins, overall; format: in vivo, mouse (Balb/c female)
[2] = system: IL-2 receptor; assay: Splenocyte cell surface density/distribution (FACS): IL-2 receptor; format: in vivo, mouse (Balb/c female)
Experimental: Another (Group B) is injected with 20 μg (±) methyl 11α,16-dihydroxy-16-methyl-9-oxoprosta-5Z,13E-dien-1-oate as in Example 13. […] A 3 cm incision is made with a scalpel above the left hip, and the spleen is cut free from adjoining tissue and placed in a 100 mn plastic culture dish containing 10 ml PBS. The splenic cells are then made into a suspension, by rubbing the spleens between the rough, frosted ends of microscope slides repeatedly until the only remaining particulate matter is connective tissue. Cells are transferred to a 15 ml conical polystyrene tube and centrifuged in a centrifuge at 1200 rpm for 5 minutes. The supernatant is discarded by aspiration and the cell pellet is resuspended in 10 ml PBS, then centrifuged at 1200 rpm for 5 minutes. The supernatant is aspirated and the cell pellet is resuspended in 15 mM Tris, 140 mM Ammonium Chloride, to lyse red blood cells. After incubating at room temperature for 10 minutes the cell suspension is centrifuged at 1200 rpm for 10 minutes. The supernatant is discarded and the cell pellet is resuspended in 10 ml FACS Buffer (PBS containing 0.1% BSA and 0.1% Sodium Azide). The cell suspension is filtered through sterile glass wool plugged in the top of a pasteur pipet. Cells in the flow through are counted using a hemacytometer, then the cell suspension is centrifuged at 1200 rpm for 5 minutes. The supernatant is discarded and the cell pellet is resuspended in a volume of FACS Buffer that will yield 4×10^7 cells/ml. 10 μl (4×10^5 cells) is added to each well of a 96-well V-bottom plate. 25 μl of diluted monoclonal antibody directed against splenocyte cell surface proteins is added to each well: Major Histocompatability Complex (MHC) Class II (M5114, ATCC, Rockville Md.), MHC Class I (M1/42, ATCC), Anti-IgD (JA12.5, ATCC, Rockville, Md.), Thymocyte (Thy)-1 (JIJ, ATCC), B220 (14.8, ATCC), Kappa light chain (187, ATCC), IL-2 Receptor (7D4, ATCC), Lyt-1 (7.313, ATCC) and CD23 (biotinylated B3B4) and incubated on ice for 30 minutes. 100 μl 10% BSA 0.1% sodium azide is added to each well, then the plates are centrifuged at 1200 rpm for 10 minutes. The liquid is removed by aspiration and the cell pellets are resuspended in 100 μl FACS Buffer, and centrifuged at 1200 rpm for 5 minutes. […] Samples are transferred to individual tubes and 10,000 cells are analyzed. Using the Lysis software (Becton Dickinson, Mountain View, Calif.) the mean channel log fluorescence and percent positive cells are determined for the entire cell population. […]

SMILES: CCCCC(C)(O)C/C=C/[C@H]1[C@H](O)CC(=O)[C@@H]1C/C=C\CCCC(=O)OC (mixture of isomers) [(±) methyl 11α,16-dihydroxy-16-methyl-9-oxoprosta-5Z,13E-dien-1-oate]
- cell surface density and distribution ([1]; anti-IgD stimulated mice, 20 μg days 3 and 4, day 7): identical cell surface density and distribution as the PBS treated group
- cell surface density and distribution ([1]; unstimulated mice, 20 μg): does not effect basal cell surface density or distribution of leukocyte membrane proteins
- Percentage Positive Cells ([2]; anti-IgD stimulated mice, 20 μg days 3 and 4, day 7 (PBS 18.4)): 23 ± 7.7%
- Mean Channel Log Fluorescence ([2]; anti-IgD stimulated mice, 20 μg days 3 and 4, day 7 (PBS 101)): 97 ± 1.5
- Percentage Positive Cells ([2]; unstimulated mice, 20 μg (PBS 2.4)): 2.7 ± 0.3%
- Mean Channel Log Fluorescence ([2]; unstimulated mice, 20 μg (PBS 98)): 96 ± 1
